Reference: publication PMC3634901 (Bioorganic & medicinal chemistry letters, 2013)
Entries after “also recorded” stand apart in the source; their conditions may differ.

Columns and labels:
[1] = test system: aPKC isoforms (PKCζ, PKCι); assay: kinase potency against aPKC isoforms; settings: without discrimination for PKCζ or PKCι; in words
Erk activation = settings: endothelial cells; cited from earlier work
Akt activation = settings: endothelial cells; cited from earlier work
[2] = test system: retinal endothelial cells; assay: VEGF/TNF-induced retinal endothelial permeability assay; format: cell-based; settings: dose response; in words
AGC kinases = settings: panel of 20 AGC kinases; cited from earlier work
[3] = test system: TNF-induced NFκB activation; format: cell-based; settings: single dose of 0.1 μM; in words

Row | potency against aPKC isoforms [1] | efficacy in preventing TNF/VEGF-induced endothelial permeability [2] | Compound | block of VEGF-induced Erk activation (Erk activation) | block of VEGF-induced Akt activation (Akt activation) | specificity towards aPKC isoforms versus AGC family members (AGC kinases) | inhibition of TNF-induced NFκB activity [3]
1 | low micromolar to high nanomolar potency | good efficacy | COc1ccc(-c2csc(N)c2C(=O)OC(C)C)cc1OC [compound 6] | does not block | does not block | high degree of specificity; also recorded: excellent selectivity | –
2 | – | – | COc1ccc(-c2csc(N)c2C(=O)OCc2ccccc2)cc1OC [compound 10] | – | – | – | significant inhibition
3 | low micromolar to high nanomolar potency | – | COc1cccc(COC(=O)c2c(-c3ccc(OC)c(OC)c3)csc2N)c1 [compound 14] | – | – | – | significant inhibition
4 | – | good efficacy | CCOC(=O)c1c(-c2ccc(N)cc2)csc1N [compound 29] | – | – | – | significant inhibition
5 | low micromolar to high nanomolar potency | good efficacy | CCOC(=O)c1c(-c2ccc(N(C)C)cc2)csc1N [compound 30] | – | – | – | –
6 | low micromolar to high nanomolar potency | good efficacy | CCOC(=O)c1c(-c2ccc3c(c2)OCO3)csc1N [compound 32] | – | – | – | significant inhibition
